Results as given in US20080058330A1, “Compounds and Combinations Thereof for Inhibiting Beta-Amyloid Production and Methods of Use Thereof” (Roskamp Research LLC, priority 2006, published 2008).
One block for each molecule: values may come before it.

How the values were obtained:
7W WT APP751 CHO cells [1] = assay: Screening of dihydropyridine compounds of Table 2, Aβ1-40 and Aβ1-42 ELISA (Example 5); type: cell-based, Chinese hamster; details: for concentration of Aβ1-40 or Aβ1-42 compared to control: 3, 10, 30 and 100 μM, 24 hours (FIGS. 22A, 22B, 23A, 23B); for concentration of Aβ1-40 compared to control: 3 and 10 μM, 24 hours (FIG. 24)
Method: (§1) Chinese hamster ovary (CHO) cells, stably transfected with human APP751 (7W WT APP751 CHO cells) were used. See, e.g., Koo and Squazzo, J. Biol. Chem., Vol. 269, Issue 26, 17386-17389, July, 1994. The cells were maintained in DMEM medium supplemented with 10% fetal bovine serum and IX mixture of penicillin/streptomycin/fungizone/glutamine mixture (Cambrex, Md.) geneticin as selecting agent in 75 cm^2 cell culture flasks.
(§2) The 7W WT APP751 CHO cells were plated in 24-well cell culture plates in quadruplicate, containing 1 ml of culture medium, and treated with various calcium channel blocker compounds for 4 hours, 24 hours or 48 hours at 37° C. and 5% CO2. All test compounds were diluted in dimethyl sulfoxide (DMSO) before being added to the cultured confluent 7W WT APP751 CHO cells. The culture medium was collected and diluted 5-fold for the 4 hours assay and 50-fold for the 24 hour assay before being assayed by ELISAs for Aβ1-40 and Aβ1-42, respectively. Concentrations of Aβ1-40 and Aβ1-42, expressed in pg/ml, were determined using commercially available ELISAs (Biosource, Calif.) in a colorimetric assay using labeled antibodies detected spectrophotometrically.
The screening of dihydropyridine compounds was conducted according to the procedure described in Example 1. Each compound was added to confluent cells to a final concentration of 3, 10, 30 or 100 μM and tested. Each of these compounds was added to confluent cells to a final concentration of 3 μM (noted as “C” in FIG. 24) or 10 μM (noted as “B” in FIG. 24).

7W WT APP751 CHO cells [2] = assay: Measurement of Aβ1-40 and Aβ1-42 by ELISA after treatment with calcium channel blockers (Example 1); type: cell-based, Chinese hamster
Method: as §1
as §2, with “All test compounds were diluted in dimethyl sulfoxide (DMSO) before being added to the cultured confluent 7W WT APP751 CHO cells.” left out

[3] = 30 μM, cells plated at low density, 24 hours (FIG. 1C)
[4] = 30 μM, cells plated at low density, 48 hours (FIG. 1D)

SMILES: COCCOC(=O)C1=C(C)NC(C)=C(C(=O)OCCOC)C1c1ccccc1Cl [Example 2-19]
concentration of Aβ1-40 or Aβ1-42 compared to control (7W WT APP751 CHO cells [1]): decreased

SMILES: CCOC(=O)C1=C(C)NC(C)=C(C(=O)OCC)C1c1ccccc1Br [Example 2-23, Diethyl 4-(2-bromophenyl)-1,4-dihydro-2,6-dimethylpyridine-3,5-dicarboxylate]
concentration of Aβ1-40 or Aβ1-42 compared to control (7W WT APP751 CHO cells [1]): decreased

SMILES: CC1=C(C(=O)OC(C)(C)C)C(c2ccccc2F)C(C(=O)OC(C)(C)C)=C(C)N1 [Example 2-28, Di-tert-butyl 4-(2-fluorophenyl)-1,4-dihydro-2,6-dimethylpyridine-3,5-dicarboxylate]
concentration of Aβ1-40 or Aβ1-42 compared to control (7W WT APP751 CHO cells [1]): decreased

SMILES: CCOC(=O)C1=C(C)NC(C)=C(C(=O)OCC)C1c1ccccc1[N+](=O)[O-] [Example 2-29, Diethyl 1,4-dihydro-2,6-dimethyl-4-(2-nitrophenyl)pyridine-3,5-dicarboxylate]
concentration of Aβ1-40 or Aβ1-42 compared to control (7W WT APP751 CHO cells [1]): decreased

SMILES: CC1=C(C(=O)OC(C)(C)C)C(c2ccccc2Br)C(C(=O)OC(C)(C)C)=C(C)N1 [Example 2-32, Di-tert-butyl 4-(2-bromophenyl)-1,4-dihydro-2,6-dimethylpyridine-3,5-dicarboxylate]
concentration of Aβ1-40 or Aβ1-42 compared to control (7W WT APP751 CHO cells [1]): decreased

SMILES: CC1=C(C(=O)OC(C)(C)C)C(c2ccccc2[N+](=O)[O-])C(C(=O)OC(C)(C)C)=C(C)N1 [Example 2-33, Di-tert-butyl 1,4-dihydro-2,6-dimethyl-4-(2-nitrophenyl)pyridine-3,5-dicarboxylate]
concentration of Aβ1-40 or Aβ1-42 compared to control (7W WT APP751 CHO cells [1]): decreased

SMILES: CCOC(=O)C1=C(C)NC(C)=C(C(=O)OCC)C1c1cccc(F)c1F [Example 3-22]
concentration of Aβ1-40 compared to control (7W WT APP751 CHO cells [1]): decreased

SMILES: CC1=C(C(=O)OC(C)(C)C)C(c2cccc(F)c2F)C(C(=O)OC(C)(C)C)=C(C)N1 [Example 3-23]
concentration of Aβ1-40 compared to control (7W WT APP751 CHO cells [1]): decreased

SMILES: CCOC(=O)C1=C(C)NC(C)=C(C(=O)OCC)C1c1ccc(Br)cc1F [Example 3-33]
concentration of Aβ1-40 compared to control (7W WT APP751 CHO cells [1]): decreased

SMILES: CC1=C(C(=O)OC(C)(C)C)C(c2ccc(Br)cc2F)C(C(=O)OC(C)(C)C)=C(C)N1 [Example 3-34, Di-tert-butyl 4-(4-bromo-2-fluorophenyl)-1,4-dihydro-2,6-dimethylpyridine-3,5-dicarboxylate]
concentration of Aβ1-40 compared to control (7W WT APP751 CHO cells [1]): decreased

SMILES: COCCOC(=O)C1=C(C)NC(C)=C(C(=O)OCCOC)C1c1cccc(Br)c1 [Example 3-37]
concentration of Aβ1-40 compared to control (7W WT APP751 CHO cells [1]): decreased

SMILES: COCCOC(=O)C1=C(C)NC(C)=C(C(=O)OCCOC)C1c1ccc(Br)cc1 [Example 3-38, Bis(2-methoxyethyl) 4-(4-bromophenyl)-1,4-dihydro-2,6-dimethylpyridine-3,5-dicarboxylate]
concentration of Aβ1-40 compared to control (7W WT APP751 CHO cells [1]): decreased

SMILES: CCOC(=O)C1=C(C)NC(C)=C(C(=O)OCC)C1c1cc(Br)ccc1F [Example 3-41, Diethyl 4-(5-bromo-2-fluorophenyl)-1,4-dihydro-2,6-dimethylpyridine-3,5-dicarboxylate]
concentration of Aβ1-40 compared to control (7W WT APP751 CHO cells [1]): decreased

SMILES: CC1=C(C(=O)OC(C)(C)C)C(c2cc(Br)ccc2F)C(C(=O)OC(C)(C)C)=C(C)N1 [Example 3-42]
concentration of Aβ1-40 compared to control (7W WT APP751 CHO cells [1]): decreased

melting point: 168 to 169 °C
SMILES: CCOC(=O)C1=C(C)N(Cc2ccccc2)C(C)=C(C(=O)OCC)C1c1ccc(Br)cc1 [Example 54, Diethyl 1-benzyl-4-(4-bromophenyl)-1,4-dihydro-2,6-dimethylpyridine-3,5-dicarboxylate]

melting point: 197 to 198 °C
SMILES: CC1=C(C(=O)OC(C)(C)C)C(c2ccc(C)cc2C)C(C(=O)OC(C)(C)C)=C(C)N1 [Example 55, Di-tert-butyl 1,4-dihydro-2,6-dimethyl-4-(2,4-dimethylphenyl)pyridine-3,5-dicarboxylate]

melting point: 125 to 127 °C
SMILES: CCOC(=O)C1=C(C)NC(C)=C(C(=O)OC)C1c1ccccc1Cl (stereo not drawn) [Example 56, 3-Ethyl 5-methyl 4-(2-chlorophenyl)-1,4-dihydro-2,6-dimethylpyridine-3,5-dicarboxylate]

melting point: 183 to 184 °C
SMILES: COC(=O)C1=C(C)NC(C)=C(C(C)=O)C1c1ccccc1Cl (stereo not drawn) [Example 57, Methyl 5-acetyl-4-(2-chlorophenyl)-1,4-dihydro-2,6-dimethylpyridine-3-carboxylate]

melting point: 134.5 to 135.5 °C
SMILES: CCOC(=O)C1=C(C)NC(C)=C(C(=O)OC)C1c1ccccc1Br (stereo not drawn) [Example 58, 3-Ethyl 5-methyl 4-(2-bromophenyl)-I14-dihydro-2,6-dimethylpyridine-3,5-dicarboxylate]

melting point: 146 to 148 °C
SMILES: COC(=O)C1=C(C)NC(C)=C(C(C)=O)C1c1ccccc1Br (stereo not drawn) [Example 59, Methyl 5-acetyl-4-(2-bromophenyl)-1,4-dihydro-2,6-dimethylpyridine-3-carboxylate]

SMILES: Clc1ccc(C(c2ccc(Cl)cc2)[n+]2ccn(CC(OCc3ccc(Cl)cc3Cl)c3ccc(Cl)cc3Cl)c2)cc1.[Cl-] (stereo not drawn) [Example R24571, 1-[bis(p-chlorophenyl)methyl]-3-[2-(2,4-di-chloro-p-(2,4-dichlorobenzyl-oxy)phenethyl)]-imidazolium chloride]
concentration of Aβ1-40 compared to controls (7W WT APP751 CHO cells [2]; 5 μM (FIG. 4)): significantly decreased
concentration of total β-amyloid compared to controls (7W WT APP751 CHO cells [2]; 5 μM (FIG. 4)): significantly decreased

SMILES: C#CCN1C(C)=C(C(=O)OC)C(c2cccc([N+](=O)[O-])c2)C(C(=O)OCC)=C1C (stereo not drawn) [MRS 1845, N-propargylnitrendipine]
concentration of Aβ1-40 compared to controls (7W WT APP751 CHO cells [2]; 30 μM (FIG. 3)): significantly decreased
concentration of total β-amyloid compared to controls (7W WT APP751 CHO cells [2]; 30 μM (FIG. 3)): significantly decreased

SMILES: COc1ccc(CCCOC(Cn2ccnc2)c2ccc(OC)cc2)cc1.Cl (stereo not drawn) [SKF 96365, 1-[beta-[3-(4-methoxyphenyl)propoxy]-4-methoxyphenethyl]-1H-imidazole hydrochloride]
concentration of Aβ1-40 compared to controls (7W WT APP751 CHO cells [2]; 15 μM, 24 hours (FIG. 1B)): significantly decreased
concentration of Aβ1-40 compared to controls (7W WT APP751 CHO cells [2]; 30 μM (FIG. 2)): significantly decreased
concentration of Aβ1-42 compared to controls (7W WT APP751 CHO cells [2]; 30 μM (FIG. 2)): significantly decreased
concentration of total β-amyloid compared to controls (7W WT APP751 CHO cells [2]; 30 μM (FIG. 2)): significantly decreased
concentration of Aβ1-40 compared to controls (7W WT APP751 CHO cells [2]; 30 μM, 24 hours (FIG. 1B)): significantly decreased

SMILES: Clc1ccccc1C(c1ccccc1)(c1ccccc1)n1ccnc1 [clotrimazole]
concentration of Aβ1-40 compared to controls (7W WT APP751 CHO cells [2]; 20 μM (FIG. 4)): significantly decreased
concentration of total β-amyloid compared to controls (7W WT APP751 CHO cells [2]; 20 μM (FIG. 4)): significantly decreased

SMILES: CN(C)C(=O)C(CCN1CCC(O)(c2ccc(Cl)cc2)CC1)(c1ccccc1)c1ccccc1 [loperamide]
concentration of Aβ1-40 compared to controls (7W WT APP751 CHO cells [2]; 30 μM (FIG. 4)): significantly decreased
concentration of Aβ1-42 compared to controls (7W WT APP751 CHO cells [2]; 30 μM (FIG. 4)): significantly decreased
concentration of total β-amyloid compared to controls (7W WT APP751 CHO cells [2]; 30 μM (FIG. 4)): significantly decreased

SMILES: COC(=O)C1=C(C#N)NC(C)=C(C(=O)OC(C)C)C1c1cccc([N+](=O)[O-])c1 (stereo not drawn) [nilvadipine]
concentration of Aβ1-40 compared to controls (7W WT APP751 CHO cells [2]; 30 μM (FIG. 3)): significantly decreased
concentration of total β-amyloid compared to controls (7W WT APP751 CHO cells [2]; 30 μM (FIG. 3)): significantly decreased
concentration of Aβ1-40 compared to controls (7W WT APP751 CHO cells [2]; 30 μM, 24 hours (FIG. 1B)): significantly decreased
concentration of Aβ1-40 compared to controls (7W WT APP751 CHO cells [2]; [3]): significantly decreased
concentration of Aβ1-40 compared to controls (7W WT APP751 CHO cells [2]; [4]): significantly decreased

SMILES: CCOC(=O)C1=C(C)NC(C)=C(C(=O)OC)C1c1cccc([N+](=O)[O-])c1 (stereo not drawn) [nitrendipine]
concentration of Aβ1-40 compared to controls (7W WT APP751 CHO cells [2]; 30 μM (FIG. 3)): significantly decreased
concentration of total β-amyloid compared to controls (7W WT APP751 CHO cells [2]; 30 μM (FIG. 3)): significantly decreased
concentration of Aβ1-40 compared to controls (7W WT APP751 CHO cells [2]; [3]): significantly decreased
concentration of Aβ1-40 compared to controls (7W WT APP751 CHO cells [2]; [4]): significantly decreased

SMILES: COc1ccc2cc1Oc1ccc(cc1)C[C@H]1c3cc(c(OC)cc3CCN1C)Oc1c(OC)c(OC)cc3c1[C@H](C2)N(C)CC3 [tetrandine, tetrandrine]
concentration of Aβ1-40 compared to controls (7W WT APP751 CHO cells [2]; 5 μM (FIG. 4)): significantly decreased
concentration of total β-amyloid compared to controls (7W WT APP751 CHO cells [2]; 5 μM (FIG. 4)): significantly decreased
concentration of Aβ1-40 compared to controls (7W WT APP751 CHO cells [2]; 10 μM (FIG. 4)): significantly decreased
concentration of total β-amyloid compared to controls (7W WT APP751 CHO cells [2]; 10 μM (FIG. 4)): significantly decreased
concentration of Aβ1-40 compared to controls (7W WT APP751 CHO cells [2]; 20 μM (FIG. 4)): significantly decreased
concentration of total β-amyloid compared to controls (7W WT APP751 CHO cells [2]; 20 μM (FIG. 4)): significantly decreased
concentration of Aβ1-40 compared to controls (7W WT APP751 CHO cells [2]; 30 μM (FIG. 4)): significantly decreased
concentration of total β-amyloid compared to controls (7W WT APP751 CHO cells [2]; 30 μM (FIG. 4)): significantly decreased

SMILES: CC(C)(C)c1cc(C=C(C#N)C#N)cc(C(C)(C)C)c1O [tyrphostin A9]
concentration of Aβ1-40 compared to controls (7W WT APP751 CHO cells [2]; 20 μM (FIG. 2)): significantly decreased
concentration of Aβ1-42 compared to controls (7W WT APP751 CHO cells [2]; 20 μM (FIG. 2)): significantly decreased
concentration of total β-amyloid compared to controls (7W WT APP751 CHO cells [2]; 20 μM (FIG. 2)): significantly decreased
